Reference: patent publication US5521315A, “Olefin substituted long chain compounds” (priority 1993, dated 1996)
Like-named read-outs stand apart in the source and are kept apart here.

Legend:
cerebral blood flow = conditions: in vivo; cited from earlier work
[1] = test system: polymorphonuclear leukocytes; conditions: in response to a stimulator of chemotaxis; cited from earlier work
[2] = test system: ras-transformed NIH/3T3 cells
LPAAT = assay: Formation of remodeled PA through the PA/DAG pathway (in vitro); type: cell-based; conditions: high PTX concentrations
Text: Even in the presence of PTX, cells continue to form PA through the action of PLD, and DAG is also formed through the action of phospholipase C on PC and PI. The latter pathway is not inhibited by the inventive compounds or PTX. In PTX-treated cells, DAG derived from remodeled and PLA-generated PA is diminished (e.g., 1,2-sn-dioleoyl DAG, 1-alkyl,2-linoleoyl DAG and 1-alkyl,2-docosahexaneolyl DAG). Therefore, the inventive compounds and PTX inhibit the formation of only a certain species of PA and DAG by selectively inhibiting a specific second messenger pathway that is only activated in cells by noxious stimuli, but is not used to signal normal cellular housekeeping functions.

[3] = test system: tumor necrosis factor (TNF); conditions: cited from earlier work
PUMP-1 = PUMP-1 activity induced by 100 U/ml of IL-1; type: cell-based; conditions: IL-1 100 U/ml
Text: Metalloproteases mediate tissue damage such as glomerular diseases of the kidney, joint destruction in arthritis, and lung destruction in emphysema, and play a role in tumor metastases. Three examples of metalloproteases include a 92 kD type V gelatinase induced by TNF, IL-1 and PDGF plus βFGF, a 72 kD type IV collagenase that is usually constitutive and induced by TNF or IL-1, and a stromelysin/PUMP-1 induced by TNF and IL-1. The inventive compounds can inhibit TNF or IL-1 induction of the 92 kD type V gelatinase inducable metalloprotease. Moreover, the inventive compounds can reduce PUMP-1 activity induced by 100 U/ml of IL-1. […] Accordingly, the inventive compounds prevent induction of certain metalloproteases induced by IL-1 or TNF and are not involved with constitutively produced proteases (e.g., 72 kD type IV collagenase) involved in normal tissue remodeling.

[4] = test system: generation of DAG and PA in ras-transformed NIH/3T3 cells; assay: Serum-stimulated generation of DAG and PA in ras-transformed NIH/3T3 cells; type: cell-based; conditions: pretreatment of cells
Text: For example, activating ras mutations result in increased generation of DAG on stimulation with mitogens, although the sources of DAG have differed between experimental systems. In nontransformed renal mesangial cells, IL-1 β stimulation increased PLA2 and LPAAT activation, resulting in generation of sn-2 unsaturated PA and subsequent hydrolysis to DAG by phosphatidate phosphohydrolase. The ras transformation in NIH/3T3 cells upregulates serum-stimulated generation of DAG and PA. The specific species of DAG that is stimulated by serum is dioleoyl and for PA are dilinoleoyl and dioleoyl. […] The inhibition occurs either through suppressing the generation of PA de novo from lysoPA, or through inhibition of one or both arms of the Lands cycle. […] Therefore, the ras transformation mediates an upregulation of PA through indirect stimulation of PLA2 and/or LPAAT activity.

Compound | cerebral blood flow (cerebral blood flow) | chemotaxis stimulation [1] | cytotoxicity in ras-transformed cells [2] | inhibition of ras-transformed cells ([2]; vs parental cells) | inhibition of formation of remodeled PA (LPAAT) | TNF levels ([3]; normal volunteers) | TNF levels ([3]; with GM-CSF, patients undergoing allogeneic bone marrow transplant) | PUMP-1 activity, % of control levels (PUMP-1) [%] | inhibition of DAG/PA generation [4]
CC(O)CCCCn1c(=O)c2c(ncn2C)n(C)c1=O (stereo not shown) [M1, 1-(5-hydroxyhexyl)-3,7-dimethylxanthine] | increasing cerebral blood flow | stimulate chemotaxis in polymorphonuclear leukocytes |  |  |  |  |  |  | 
CC(=O)CCCCn1c(=O)c2c(ncn2C)n(C)c1=O [PTX, 1-(5-oxohexyl)-3,7-dimethylxanthine] |  | stimulate chemotaxis in polymorphonuclear leukocytes | not associated with significant cytotoxicity | inhibits ras-transformed NIH/3T3 cells more than parental cells | blocks formation of remodeled PA through the PA/DAG pathway at high PTX concentrations | TNF levels were higher among PTX recipients | decrease tumor necrosis factor (TNF) levels | 95 | blocks generation of these phospholipid second messengers
